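Five compound concentrations were applied to cells in 96-well plates for 48 hours; endpoints were derived by simple linear interpolation of the resulting dose-response curve. Abbreviation: GI50, concentration required for 50% inhibition of growth.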 Activity calls are given as the source filed them. Rule as the data show it: active = GI50 up to about 1.1 µM and inactive = higher.
Experiments:
Assay in all cases: NCI tumour cell line growth inhibition, 48 h
[1] = system: SK-MEL-5
[2] = system: DU-145
[3] = system: HOP-92
[4] = system: Hs-578T
[5] = system: OVCAR-3
[6] = system: CAKI-1
[7] = system: HCT-15
[8] = system: BT-549
[9] = system: SK-MEL-28
[10] = system: SN12C
[11] = system: OVCAR-8
[12] = system: MDA-MB-231
[13] = system: IGROV-1
[14] = system: A498
[15] = system: KM12
[16] = system: 786-0
[17] = system: T47D
[18] = system: CCRF-CEM
[19] = system: ACHN
[20] = system: Malme-3M
[21] = system: LOX IMVI
[22] = system: HOP-62
[23] = system: NCI-H23
[24] = system: UO-31
[25] = system: SF-268
[26] = system: K562
[27] = system: MOLT-4
[28] = system: NCI-H522
[29] = system: OVCAR-5
[30] = system: MCF7
[31] = system: OVCAR-4
[32] = system: HT-29
[33] = system: UACC-62
[34] = system: SW-620
[35] = system: EKVX
[36] = system: SK-MEL-2
[37] = system: NCI/ADR-RES
[38] = system: NCI-H460
[39] = system: TK-10
[40] = system: M14
[41] = system: MDA-MB-435
[42] = system: SNB-75
[43] = system: UACC-257
[44] = system: NCI-H226
[45] = system: SR
[46] = system: SF-539
[47] = system: SF-295
[48] = system: U-251
[49] = system: SK-OV-3
[50] = system: HCC 2998
[51] = system: A549
[52] = system: HCT-116
[53] = system: MDA-N
[54] = system: COLO 205
[55] = system: SNB-19
[56] = system: RXF 393
[57] = system: HL-60
[58] = system: PC-3

Measured: GI50

Clc1sc(Cl)c2c1[C@H](Cl)C[C@@H]2Cl
20.2 µM: [7]
active: [28] 1.07 µM
inactive: [1] 32.4 µM | [2] 27.5 µM | [3] 6.58 µM | [4] 15.9 µM | [5] 24.2 µM | [6] 20.2 µM | [8] 26.5 µM | [9] 17.5 µM | [10] 16.8 µM | [11] 18.4 µM | [12] 32.1 µM | [13] 17.4 µM | [14] 84.1 µM | [15] 25.6 µM | [16] 19.6 µM | [17] 17.6 µM | [18] 6.82 µM | [19] 33.2 µM | [20] 15 µM | [21] 9.46 µM | [22] 38.5 µM | [23] 24.4 µM | [24] 14.6 µM | [25] 17.8 µM | [26] 6 µM | [27] 50.2 µM | [29] 29.2 µM | [30] 6.52 µM | [31] 23.6 µM | [32] 32.7 µM | [33] 22.2 µM | [34] 3.87 µM | [35] 38.3 µM | [36] 22.5 µM | [37] 15.9 µM | [38] 49.2 µM | [39] 39.5 µM | [40] 15.1 µM | [41] 18.2 µM | [42] 20 µM | [43] 24.3 µM | [44] 19.8 µM | [45] 58.9 µM | [46] 18.7 µM | [47] 35.3 µM | [48] 20.9 µM | [49] 54 µM | [50] 15.2 µM | [51] 21.2 µM | [52] 4.85 µM | [53] 20.6 µM | [54] 29.2 µM

CCCC[S+]([O-])CCC(N)C(=O)O (stereo not drawn)
> 100 µM: [7]
inactive: [1] > 100 µM | [2] > 100 µM | [4] > 100 µM | [5] > 100 µM | [6] > 100 µM | [8] > 100 µM | [9] > 100 µM | [10] > 100 µM | [11] > 100 µM | [12] > 100 µM | [13] > 100 µM | [14] > 100 µM | [15] > 100 µM | [16] > 100 µM | [17] > 100 µM | [18] > 100 µM | [19] > 100 µM | [20] 1.94 µM | [55] > 100 µM | [22] > 100 µM | [23] > 100 µM | [24] > 100 µM | [25] > 100 µM | [26] > 100 µM | [27] > 100 µM | [28] > 100 µM | [29] > 100 µM | [30] > 100 µM | [31] > 100 µM | [56] > 100 µM | [32] > 100 µM | [33] > 100 µM | [34] > 100 µM | [35] > 100 µM | [37] > 100 µM | [38] > 100 µM | [57] > 100 µM | [39] > 100 µM | [58] > 100 µM | [40] > 100 µM | [42] > 100 µM | [43] > 100 µM | [44] > 100 µM | [45] > 100 µM | [46] > 100 µM | [47] > 100 µM | [48] > 100 µM | [49] > 100 µM | [50] > 100 µM | [51] > 100 µM | [52] > 100 µM | [53] > 100 µM | [54] > 100 µM

— ChEMBL document CHEMBL1201862, “PubChem BioAssay data set” (2004)
